Source: the supplement of paper PMC10307832

Legend:
Assay in all cases: relative viability (nuclei count vs DMSO), 5 days (fraction); higher = more cells survive
Motesanib + Luminespib = compound: CC1(C)CNc2cc(NC(=O)c3cccnc3NCc3ccncc3)ccc21 [Motesanib] + CCNC(=O)c1noc(-c2cc(C(C)C)c(O)cc2O)c1-c1ccc(CN2CCOCC2)cc1 [Luminespib] (partner 0.01 µM)
In short: (§1)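 Lung cancer cell lines, seeded in 1536-well plates, were treated the following day by pin tool with a single drug or with five library-drug doses (not always all listed) in √10 steps on top of a fixed anchor-drug dose. Cells were fixed and nuclei stained in one step after 5 days, and nuclei were counted. Relative viability is the nuclei count for treated wells divided by that for vehicle wells, reported as medians of duplicate plates.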

Motesanib + Vorinostat = compound: CC1(C)CNc2cc(NC(=O)c3cccnc3NCc3ccncc3)ccc21 [Motesanib] + O=C(CCCCCCC(=O)Nc1ccccc1)NO [Vorinostat] (partner 1 µM)
In short: as §1

[1] = compound: C[C@@]1(C(=O)Nc2ccc(F)nc2)CCCN1c1nc(Nc2cc(C3CC3)n[nH]2)c2cccn2n1 + Cc1cc(Nc2cc(N3CCN(C)CC3)nc(Sc3ccc(NC(=O)C4CC4)cc3)n2)n[nH]1 [Tozasertib] (partner 0.1 µM)
In short: as §1

Motesanib + Dasatinib = compound: CC1(C)CNc2cc(NC(=O)c3cccnc3NCc3ccncc3)ccc21 [Motesanib] + Cc1nc(Nc2ncc(C(=O)Nc3c(C)cccc3Cl)s2)cc(N2CCN(CCO)CC2)n1 [Dasatinib] (partner 0.075 µM)
In short: as §1

NCI-H358 was tested, and the relative viability (Motesanib + Luminespib; first compound 0.01 µM) was 0.317, the relative viability (Motesanib + Luminespib; first compound 0.03162 µM) was 0.333 and the relative viability (Motesanib + Luminespib; first compound 0.1 µM) was 0.402. The relative viability (Motesanib + Luminespib; first compound 0.3162 µM) was 0.479, the relative viability (Motesanib + Luminespib; first compound 1 µM) was 0.369 and the relative viability (Motesanib + Vorinostat; first compound 0.01 µM) was 0.641. For the same cell line, the relative viability (Motesanib + Vorinostat; first compound 0.03162 µM) was 0.67, the relative viability (Motesanib + Vorinostat; first compound 0.1 µM) was 0.71 and the relative viability (Motesanib + Vorinostat; first compound 0.3162 µM) was 0.819. It also gave a relative viability (Motesanib + Vorinostat; first compound 1 µM) of 0.649, a relative viability ([1]; first compound 0.04 µM) of 0.0856 and a relative viability ([1]; first compound 0.1265 µM) of 0.0931. For the same cell line, the relative viability ([1]; first compound 0.4 µM) was 0.0786, the relative viability ([1]; first compound 1.265 µM) was 0.0689 and the relative viability (Motesanib + Dasatinib; first compound 0.01 µM) was 0.14. The relative viability (Motesanib + Dasatinib; first compound 0.03162 µM) was 0.155, the relative viability (Motesanib + Dasatinib; first compound 0.1 µM) was 0.133 and the relative viability (Motesanib + Dasatinib; first compound 0.3162 µM) was 0.2. For the same cell line, the relative viability (Motesanib + Dasatinib; first compound 1 µM) was 0.158.

NCI-H650 showed a relative viability (Motesanib + Luminespib; first compound 0.01 µM) of 0.788, a relative viability (Motesanib + Luminespib; first compound 0.1 µM) of 0.81 and a relative viability (Motesanib + Luminespib; first compound 0.3162 µM) of 0.837. For the same cell line, the relative viability (Motesanib + Luminespib; first compound 1 µM) was 0.801, the relative viability (Motesanib + Vorinostat; first compound 0.01 µM) was 0.435 and the relative viability (Motesanib + Vorinostat; first compound 0.03162 µM) was 0.439. For the same cell line, the relative viability (Motesanib + Vorinostat; first compound 0.1 µM) was 0.554, the relative viability (Motesanib + Vorinostat; first compound 0.3162 µM) was 0.549 and the relative viability (Motesanib + Vorinostat; first compound 1 µM) was 0.477. The relative viability ([1]; first compound 0.04 µM) was 0.714, the relative viability ([1]; first compound 0.1265 µM) was 0.479 and the relative viability ([1]; first compound 0.4 µM) was 0.523. For the same cell line, the relative viability ([1]; first compound 1.265 µM) was 0.398, the relative viability (Motesanib + Dasatinib; first compound 0.01 µM) was 0.399 and the relative viability (Motesanib + Dasatinib; first compound 0.1 µM) was 0.442. It also gave a relative viability (Motesanib + Dasatinib; first compound 0.3162 µM) of 0.501 and a relative viability (Motesanib + Dasatinib; first compound 1 µM) of 0.444.

PC-3 [JPC-3] showed a relative viability (Motesanib + Luminespib; first compound 0.01 µM) of 0.686, a relative viability (Motesanib + Luminespib; first compound 0.03162 µM) of 0.745 and a relative viability (Motesanib + Luminespib; first compound 0.1 µM) of 0.683. The relative viability (Motesanib + Luminespib; first compound 0.3162 µM) was 0.597, the relative viability (Motesanib + Luminespib; first compound 1 µM) was 0.733 and the relative viability (Motesanib + Vorinostat; first compound 0.01 µM) was 0.686. The relative viability (Motesanib + Vorinostat; first compound 0.03162 µM) was 0.71, the relative viability (Motesanib + Vorinostat; first compound 0.1 µM) was 0.774 and the relative viability (Motesanib + Vorinostat; first compound 0.3162 µM) was 0.828. It also gave a relative viability (Motesanib + Vorinostat; first compound 1 µM) of 0.789, a relative viability ([1]; first compound 0.04 µM) of 0.915 and a relative viability ([1]; first compound 0.1265 µM) of 0.882. For the same cell line, the relative viability ([1]; first compound 0.4 µM) was 0.843, the relative viability ([1]; first compound 1.265 µM) was 0.887 and the relative viability (Motesanib + Dasatinib; first compound 0.01 µM) was 0.845. For the same cell line, the relative viability (Motesanib + Dasatinib; first compound 0.03162 µM) was 0.989, the relative viability (Motesanib + Dasatinib; first compound 0.1 µM) was 0.974 and the relative viability (Motesanib + Dasatinib; first compound 0.3162 µM) was 1.04. It also gave a relative viability (Motesanib + Dasatinib; first compound 1 µM) of 0.974.
